In US11980689B2 (AVALYN PHARMA INC., priority 2013, dated 2024):
“Also recorded” adds a separate entry of the source.

Tests used:
lung cancer = details: cited from earlier work
CYP3A4 = CYP3A4 (Homo sapiens, UniProt P08684); details: cited from earlier work
JAK2V617F = JAK2V617F (Homo sapiens, UniProt O60674, V617F); details: cited from earlier work
PI3K = details: cited from earlier work
mTOR = mTOR (Homo sapiens, UniProt P42345); details: cited from earlier work
[1] = single- and repeat-dosing; cited from earlier work
breast cancer stem cells = details: mouse, in vivo; cited from earlier work
p110-γ and p110-δ = details: cited from earlier work
p110a = p110a (Homo sapiens, UniProt P42336); details: cited from earlier work
Chain of p110a (P42336 whole entry, species assumed): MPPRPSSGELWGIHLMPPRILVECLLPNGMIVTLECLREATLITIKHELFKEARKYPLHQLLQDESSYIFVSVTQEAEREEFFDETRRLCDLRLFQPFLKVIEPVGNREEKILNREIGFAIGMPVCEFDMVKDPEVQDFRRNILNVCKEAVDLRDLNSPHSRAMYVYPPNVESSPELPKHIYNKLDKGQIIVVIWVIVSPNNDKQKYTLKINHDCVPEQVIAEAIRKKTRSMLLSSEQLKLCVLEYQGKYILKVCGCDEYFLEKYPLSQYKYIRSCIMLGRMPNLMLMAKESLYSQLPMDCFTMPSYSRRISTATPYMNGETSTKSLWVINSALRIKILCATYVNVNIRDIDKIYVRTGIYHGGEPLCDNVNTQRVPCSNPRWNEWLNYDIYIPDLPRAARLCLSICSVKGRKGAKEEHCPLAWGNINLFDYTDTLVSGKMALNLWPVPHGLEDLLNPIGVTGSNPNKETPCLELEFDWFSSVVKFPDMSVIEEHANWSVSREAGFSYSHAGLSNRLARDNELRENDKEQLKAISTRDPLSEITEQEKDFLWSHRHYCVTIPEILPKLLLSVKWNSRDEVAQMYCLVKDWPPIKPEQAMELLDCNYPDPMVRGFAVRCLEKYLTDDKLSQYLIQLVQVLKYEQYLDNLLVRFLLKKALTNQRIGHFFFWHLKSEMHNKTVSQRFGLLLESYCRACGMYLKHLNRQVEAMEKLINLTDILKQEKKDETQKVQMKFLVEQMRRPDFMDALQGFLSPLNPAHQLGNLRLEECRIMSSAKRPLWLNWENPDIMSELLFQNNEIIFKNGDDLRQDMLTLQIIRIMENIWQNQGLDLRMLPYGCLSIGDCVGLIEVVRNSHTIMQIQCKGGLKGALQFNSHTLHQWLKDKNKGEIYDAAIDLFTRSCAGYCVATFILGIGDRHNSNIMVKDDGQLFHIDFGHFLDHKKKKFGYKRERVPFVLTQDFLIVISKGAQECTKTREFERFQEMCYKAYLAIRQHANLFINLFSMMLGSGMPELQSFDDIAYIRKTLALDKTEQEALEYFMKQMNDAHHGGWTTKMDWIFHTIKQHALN
Chain of p110a (P27986 whole entry partner, species assumed): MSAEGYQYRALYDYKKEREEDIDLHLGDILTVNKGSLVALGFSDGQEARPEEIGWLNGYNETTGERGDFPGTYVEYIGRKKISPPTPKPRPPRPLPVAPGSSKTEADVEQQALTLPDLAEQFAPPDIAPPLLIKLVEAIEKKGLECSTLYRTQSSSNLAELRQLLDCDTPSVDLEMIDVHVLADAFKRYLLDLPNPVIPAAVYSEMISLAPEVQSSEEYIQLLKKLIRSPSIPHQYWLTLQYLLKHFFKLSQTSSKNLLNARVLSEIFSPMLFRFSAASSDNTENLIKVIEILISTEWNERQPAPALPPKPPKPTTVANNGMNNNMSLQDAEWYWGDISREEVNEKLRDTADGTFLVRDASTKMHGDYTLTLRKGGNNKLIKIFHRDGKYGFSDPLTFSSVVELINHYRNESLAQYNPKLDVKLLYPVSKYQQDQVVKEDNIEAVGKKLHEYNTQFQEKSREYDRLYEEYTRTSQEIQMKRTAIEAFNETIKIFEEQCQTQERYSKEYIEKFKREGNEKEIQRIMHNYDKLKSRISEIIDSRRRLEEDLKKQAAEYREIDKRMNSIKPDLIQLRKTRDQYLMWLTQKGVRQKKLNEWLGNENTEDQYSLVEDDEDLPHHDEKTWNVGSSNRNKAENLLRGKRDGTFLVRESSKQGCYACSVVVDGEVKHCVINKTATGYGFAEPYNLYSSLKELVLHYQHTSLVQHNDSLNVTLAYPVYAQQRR

PDGFR-β = PDGFR-β (Homo sapiens, UniProt P09619); details: cellular studies; cited from earlier work
Chain of PDGFR-β (P09619 33-1106, species assumed): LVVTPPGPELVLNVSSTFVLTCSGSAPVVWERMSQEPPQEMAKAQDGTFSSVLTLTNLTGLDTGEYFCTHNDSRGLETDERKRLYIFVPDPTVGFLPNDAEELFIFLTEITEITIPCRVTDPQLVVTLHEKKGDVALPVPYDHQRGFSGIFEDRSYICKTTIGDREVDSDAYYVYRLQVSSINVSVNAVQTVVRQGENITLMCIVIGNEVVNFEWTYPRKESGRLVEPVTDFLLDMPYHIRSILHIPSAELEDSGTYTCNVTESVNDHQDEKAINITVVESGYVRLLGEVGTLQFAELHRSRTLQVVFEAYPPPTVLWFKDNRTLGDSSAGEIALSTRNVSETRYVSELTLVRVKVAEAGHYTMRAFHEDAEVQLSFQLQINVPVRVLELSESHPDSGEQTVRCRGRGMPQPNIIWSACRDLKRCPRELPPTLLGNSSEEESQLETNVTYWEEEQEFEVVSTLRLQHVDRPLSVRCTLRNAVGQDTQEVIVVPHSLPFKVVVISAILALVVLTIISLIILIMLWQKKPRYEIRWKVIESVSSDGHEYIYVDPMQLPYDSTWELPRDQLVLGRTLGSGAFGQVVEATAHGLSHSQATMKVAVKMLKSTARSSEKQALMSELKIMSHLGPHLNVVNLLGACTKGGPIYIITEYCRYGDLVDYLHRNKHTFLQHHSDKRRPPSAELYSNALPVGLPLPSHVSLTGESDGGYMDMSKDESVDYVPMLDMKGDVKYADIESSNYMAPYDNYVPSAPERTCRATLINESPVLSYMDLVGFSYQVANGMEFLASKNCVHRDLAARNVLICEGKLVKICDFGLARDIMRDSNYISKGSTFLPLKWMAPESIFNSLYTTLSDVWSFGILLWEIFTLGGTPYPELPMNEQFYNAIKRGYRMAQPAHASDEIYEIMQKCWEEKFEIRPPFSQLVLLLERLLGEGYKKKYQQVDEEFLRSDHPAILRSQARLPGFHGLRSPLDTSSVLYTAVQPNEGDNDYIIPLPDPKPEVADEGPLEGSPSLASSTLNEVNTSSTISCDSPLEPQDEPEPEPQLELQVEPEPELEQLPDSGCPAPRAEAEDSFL

chelation of iron(III) = type: physicochemical
VEGF-R2 = VEGF-R2 (Homo sapiens, UniProt P35968); details: purified enzymes; cited from earlier work
CML = details: cited from earlier work
[2] = test system: radiation-induced lung fibrosis; details: mouse, in vivo; cited from earlier work
TIE-2 [TEK] = TIE-2 [TEK] (Homo sapiens, UniProt Q02763); details: purified enzymes; cited from earlier work
[3] = target: epidermal growth factor (EGF) receptor intracellular domain (Homo sapiens, UniProt P00533); details: purified enzymes; cited from earlier work
[4] = test system: committed progenitor cells from patients with CML; details: cited from earlier work
[5] = target: fibroblast growth factor receptor 1 (FGF-R1) (Homo sapiens, UniProt P11362); details: purified enzymes; cited from earlier work
[6] = test system: Hepatitis C viral-related liver disease; details: oral; cited from earlier work
[7] = test system: doxorubicin-induced toxicity (heart and kidney); details: mortality, abdominal fluid, cardiac and renal lesions; cited from earlier work
fibrosis = details: rat, in vivo; cited from earlier work
VEGF-R1 = VEGF-R1 (Homo sapiens, UniProt P17948); details: purified enzymes; cited from earlier work
[8] = test system: bleomycin-induced pulmonary fibrosis; details: cited from earlier work
heavy metal challenge = details: oral; cited from earlier work
cardiac fibrosis = details: rat, in vivo; cited from earlier work
[9] = in vivo
kit in H526 cells = kit in H526 cells (Homo sapiens, UniProt P10721); details: pretreatment of H526 cells; cited from earlier work
[10] = Sprague-Dawley, rat, in vivo, po, 5.6 mg/kg
[11] = test system: KIT with mutations in the juxtamembrane domain-coding region; details: cited from earlier work
TEL-PDGFRβ = target: T1, TEL-PDGFRβ (Homo sapiens, UniProt P09619); details: mouse, in vivo; cited from earlier work
T1 construct: host or cells: transgenic mice; the other entry of the earlier key: ETV6 (P41212, Transcription factor ETV6)
T1 sequence (P09619 554-1106 limits assumed): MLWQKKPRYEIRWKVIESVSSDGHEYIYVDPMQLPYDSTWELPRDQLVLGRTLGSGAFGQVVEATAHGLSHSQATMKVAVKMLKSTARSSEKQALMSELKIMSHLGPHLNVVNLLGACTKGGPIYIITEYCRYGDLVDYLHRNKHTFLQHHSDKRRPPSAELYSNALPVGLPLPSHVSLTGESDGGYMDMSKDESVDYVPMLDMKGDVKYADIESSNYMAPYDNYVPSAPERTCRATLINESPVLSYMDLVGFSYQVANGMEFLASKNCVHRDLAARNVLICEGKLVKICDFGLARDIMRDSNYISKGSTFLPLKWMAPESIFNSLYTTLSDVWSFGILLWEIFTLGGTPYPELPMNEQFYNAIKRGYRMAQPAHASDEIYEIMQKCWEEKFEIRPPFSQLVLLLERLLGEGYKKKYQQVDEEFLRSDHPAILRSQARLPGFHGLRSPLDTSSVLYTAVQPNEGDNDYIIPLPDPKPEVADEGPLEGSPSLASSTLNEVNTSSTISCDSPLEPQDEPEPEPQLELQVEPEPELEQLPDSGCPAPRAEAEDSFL

KIT receptor = details: cited from earlier work
in vivo = details: Sprague-Dawley, rat
chelation of magnesium = type: physicochemical
[12] = test system: kidney fibrosis following diabetic challenge; details: oral; cited from earlier work
PDGFR-α = PDGFR-α (Homo sapiens, UniProt P16234); details: cellular studies; cited from earlier work
liver fibrosis = details: cited from earlier work
[13] = test system: dimethylnitrosamine-induced hepatic fibrosis; details: cited from earlier work
[14] = test system: KIT with mutations affecting the activation loop; details: cited from earlier work
IPF = details: cited from earlier work
[15] = test system: Alpha-1 glycoprotein (AGP); details: cited from earlier work
[16] = test system: A10 rat aorta smooth muscle cells; details: cited from earlier work
c-kit = c-kit (Homo sapiens, UniProt P10721); details: kinase activity at 5 μM; cited from earlier work
c-MET = c-MET (Homo sapiens, UniProt P08581); details: purified enzymes; cited from earlier work
renal fibrosis = details: rat, in vivo; cited from earlier work

Chain of JAK2V617F (O60674 whole entry V617F): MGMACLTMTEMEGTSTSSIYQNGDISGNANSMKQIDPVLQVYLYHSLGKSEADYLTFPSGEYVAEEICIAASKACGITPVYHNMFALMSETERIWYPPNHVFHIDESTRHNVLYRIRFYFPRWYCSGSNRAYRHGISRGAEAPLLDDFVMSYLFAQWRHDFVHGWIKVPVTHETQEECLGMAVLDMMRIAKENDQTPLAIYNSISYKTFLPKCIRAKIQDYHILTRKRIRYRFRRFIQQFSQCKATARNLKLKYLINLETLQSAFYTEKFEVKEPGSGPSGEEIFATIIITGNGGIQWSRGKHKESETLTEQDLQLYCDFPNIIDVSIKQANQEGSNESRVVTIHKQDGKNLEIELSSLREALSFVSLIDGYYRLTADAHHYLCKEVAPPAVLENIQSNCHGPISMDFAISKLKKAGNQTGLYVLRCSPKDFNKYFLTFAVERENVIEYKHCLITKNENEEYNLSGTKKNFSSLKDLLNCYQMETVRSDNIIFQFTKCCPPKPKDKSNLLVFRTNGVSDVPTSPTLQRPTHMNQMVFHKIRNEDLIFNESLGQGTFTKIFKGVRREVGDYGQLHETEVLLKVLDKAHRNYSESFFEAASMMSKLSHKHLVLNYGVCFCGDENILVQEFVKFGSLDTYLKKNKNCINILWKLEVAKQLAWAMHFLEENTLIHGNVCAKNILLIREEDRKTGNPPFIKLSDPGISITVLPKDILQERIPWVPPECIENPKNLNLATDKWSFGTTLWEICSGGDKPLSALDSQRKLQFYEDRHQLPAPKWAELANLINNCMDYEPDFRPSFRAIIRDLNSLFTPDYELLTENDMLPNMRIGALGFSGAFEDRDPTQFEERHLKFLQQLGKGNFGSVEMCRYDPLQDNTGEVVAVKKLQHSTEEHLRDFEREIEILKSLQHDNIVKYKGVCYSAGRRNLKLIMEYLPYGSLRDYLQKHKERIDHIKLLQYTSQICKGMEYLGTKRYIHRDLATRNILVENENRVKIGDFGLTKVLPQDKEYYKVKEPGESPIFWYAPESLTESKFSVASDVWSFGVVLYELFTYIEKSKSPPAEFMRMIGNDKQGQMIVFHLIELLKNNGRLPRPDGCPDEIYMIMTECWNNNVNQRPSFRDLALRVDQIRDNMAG
Chain of CYP3A4 (P08684 whole entry): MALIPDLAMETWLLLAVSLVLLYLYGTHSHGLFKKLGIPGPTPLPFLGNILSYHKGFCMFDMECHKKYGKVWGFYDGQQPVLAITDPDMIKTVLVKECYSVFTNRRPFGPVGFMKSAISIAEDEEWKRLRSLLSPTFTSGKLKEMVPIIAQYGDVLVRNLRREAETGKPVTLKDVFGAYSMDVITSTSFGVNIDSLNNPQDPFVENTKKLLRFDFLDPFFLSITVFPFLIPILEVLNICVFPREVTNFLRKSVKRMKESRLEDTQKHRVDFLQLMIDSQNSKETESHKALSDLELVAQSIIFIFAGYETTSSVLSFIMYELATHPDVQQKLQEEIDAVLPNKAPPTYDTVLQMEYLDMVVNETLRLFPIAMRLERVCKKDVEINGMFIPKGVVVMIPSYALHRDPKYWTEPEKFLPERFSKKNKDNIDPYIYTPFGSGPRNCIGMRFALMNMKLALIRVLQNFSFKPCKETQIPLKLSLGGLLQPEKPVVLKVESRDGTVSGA

Question: For `C#Cc1cccc(Nc2ncnc3cc(OCCOC)c(OCCOC)cc23)c1` [Erlotinib], which response rate (lung cancer; EGFR mutation positive patients) is on record?
Answer: approximately 60%

Question: And the “time to resistance from the start of treatment” value (lung cancer; human, in vivo)?
Answer: 8-12 months

Question: And the metabolism (CYP3A4)?
Answer: mainly metabolized

Question: And the “inhibition of JAK2V617F activity” value (JAK2V617F)?
Answer: potent inhibitor

Question: For `Cc1c(CN2CCN(S(C)(=O)=O)CC2)sc2c(N3CCOCC3)nc(-c3cnc(N)nc3)nc12` [GNE-477], which IC50 (mTOR) is on record?
Answer: 21 nM

Question: For `O=C1NC(=O)/C(=C/c2ccc3nccc(-c4ccncc4)c3c2)S1` [GSK1059615], which exposure [1] is on record?
Answer: lack of sufficient exposure

Question: Which “effectiveness relative to paclitaxel” value (breast cancer stem cells) does the source give for `CC[C@@H](C(=O)[C@@H](C)[C@@H](O)[C@H](C)[C@@H]1O[C@@H]([C@@H](CC)C(=O)O)CC[C@@H]1C)[C@H]1O[C@]2(C=C[C@@H](O)[C@]3(CC[C@@](C)([C@H]4CC[C@](O)(CC)[C@H](C)O4)O3)O2)[C@H](C)C[C@@H]1C` [Salinomycin] here?
Answer: at least 100 times

Question: For `Nc1nc(N)c2nc(-c3cccc(O)c3)c(-c3cccc(O)c3)nc2n1` [TG100-115], which “better potency than against the other isoforms” value (p110-γ and p110-δ) is on record?
Answer: 5-10 fold

Question: Which inhibition (p110a) does the source give for `FC(F)c1nc2ccccc2n1-c1nc(N2CCOCC2)nc(N2CCOCC2)n1` [ZSTK474] here?
Answer: potent inhibitor

Question: Which receptor inhibition (PDGFR-β) does the source give for `Cc1ccc(NC(=O)c2ccc(CN3CCN(C)CC3)cc2)cc1Nc1nccc(-c2cccnc2)n1` [imatinib, 4-[(4-methylpiperazin-1-yl)methyl]-N-(4-methyl-3-{[4-(pyridin-3-yl)pyrimidin-2-yl]amino}phenyl)benzamide] here?
Answer: potent inhibition

Question: What about the “imatinib molecules per iron(III) ion” value (chelation of iron(III)) of the same compound?
Answer: three

Question: And the “inhibition of kinase activity” value (VEGF-R2)?
Answer: weak or no inhibition

Question: And the “patients achieving a complete haematological response” value (CML; chronic-phase CML, doses of 300 mg or higher)?
Answer: 98%

Question: And the maximal tolerated dose (CML; oral 25 to 1,000 mg per day)?
Answer: no maximal tolerated dose was identified

Question: And the “effect on lung fibrosis” value [2]?
Answer: antifibrotic effects

Question: What about the “inhibition of kinase activity” value (TIE-2 [TEK]) of the same compound?
Answer: weak or no inhibition

Question: What about the “inhibition of EGF receptor intracellular domain” value [3] of the same compound?
Answer: did not inhibit

Question: And the colony formation [4]?
Answer: selective inhibition

Question: And the “inhibition of kinase activity” value [5]?
Answer: weak or no inhibition

Question: What about the “fibrosis and quality of life” value [6] of the same compound?
Answer: decreased fibrosis and improved quality of life

Question: What about the “severity of doxorubicin-induced toxicity” value [7] of the same compound?
Answer: reduced the severity

Question: And the fibrosis (fibrosis)?
Answer: reversal of fibrosis

Question: And the “inhibition of kinase activity” value (VEGF-R1)?
Answer: weak or no inhibition

Question: What about the “development of pulmonary fibrosis, early treatment” value ([8]; Days 0 to 15) of the same compound?
Answer: significantly prevented

Question: And the “development of pulmonary fibrosis, late treatment” value ([8]; Days 15 to 28)?
Answer: did not

Question: What about the “development of pulmonary fibrosis” value ([8]; mouse, in vivo) of the same compound?
Answer: inhibited the development of pulmonary fibrosis

Question: And the “effect against heavy metal challenge” value (heavy metal challenge)?
Answer: protective effect

Question: And the fibrosis (cardiac fibrosis)?
Answer: reversed and prevented fibrosis

Question: What about the lung-surface cations [9] of the same compound?
Answer: depletion of essential lung-surface cations

Question: And the SCF-mediated kit activation (kit in H526 cells)?
Answer: inhibited

Question: And the “Lung AUC” value [10]?
Answer: 64.1 mg·h/kg

Question: What about the “Lung Cmax” value [10] of the same compound?
Answer: 13.0 µg/g

Question: And the “inhibition of KIT kinase activity” value [11]?
Answer: effective

Question: And the “survival of the animals” value (TEL-PDGFRβ)?
Answer: prolonged survival

Question: And the tumor formation (TEL-PDGFRβ)?
Answer: inhibited tumor formation

Question: What about the KIT autophosphorylation (KIT receptor; cell line from a GIST patient with an activating Kit mutation) of the same compound?
Answer: suppress

Question: What about the “autophosphorylation of the KIT receptor” value (KIT receptor; upon binding of stem-cell factor (SCF)) of the same compound?
Answer: potently inhibited; also recorded: blocks

Question: And the AUC (in vivo; inhaled or intranasal, 1 mg/kg)?
Answer: 40 ng·h/mL

Question: What about the Cmax (in vivo; inhaled or intranasal, 1 mg/kg) of the same compound?
Answer: 20 ng/mL

Question: And the AUC (in vivo; po, 5.6 mg/kg)?
Answer: 4900 ng·h/mL

Question: What about the Cmax (in vivo; po, 5.6 mg/kg) of the same compound?
Answer: 1100 ng/mL

Question: What about the “imatinib molecules to one magnesium ion” value (chelation of magnesium) of the same compound?
Answer: two

Question: What about the “effect on fibrosis following diabetic challenge” value [12] of the same compound?
Answer: fibrosis reversal

Question: And the receptor inhibition (PDGFR-α)?
Answer: potent inhibition

Question: What about the “inhibition of liver fibrosis, early treatment” value (liver fibrosis; Days 0 to 21) of the same compound?
Answer: effective

Question: What about the “inhibition of liver fibrosis, late treatment” value (liver fibrosis; Days 22 to 35) of the same compound?
Answer: not late

Question: And the “mRNA for type I collagen and transforming growth factor-beta in the liver” value ([13]; in vivo)?
Answer: suppressed

Question: And the “effect against hepatic fibrosis” value ([13]; oral)?
Answer: protective effect

Question: What about the hepatic hydroxyproline levels ([13]; oral) of the same compound?
Answer: reduced

Question: What about the “sensitivity of KIT mutants” value [14] of the same compound?
Answer: resistant

Question: What about the secondary outcome parameters (IPF; DICO, change in PVC, 6-minute walk test) of the same compound?
Answer: no benefit

Question: And the “incidence of AE-related drop-outs” value (IPF; dose reduction 600 mg to 400 mg daily allowed)?
Answer: 22%

Question: And the “primary outcome, time to disease progression” value (IPF; in vivo)?
Answer: no benefit

Question: And the “binding by AGP” value [15]?
Answer: high affinity

Question: What about the serum-induced growth [16] of the same compound?
Answer: did not affect

Question: And the “tyrosine phosphorylation and in vitro kinase activity of c-kit” value (c-kit)?
Answer: dose-dependent inhibition

Question: What about the “inhibition of kinase activity” value (c-MET) of the same compound?
Answer: weak or no inhibition

Question: What about the “action in renal fibrosis” value (renal fibrosis) of the same compound?
Answer: antifibrotic action
